Molecules are shown by their SMILES.

The data set can be described thus: gradient 5% acetonitrile 3 min, to 50% in 2 min, to 85% in 15 min, held 3 min, 100 µL/min. The settings on record: column: Zorbax Extend-C18 2.1 x 50 mm; eluents: water / acetonitrile, 0.1% formic acid. In outline:
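Standards, all pure, were combined into mixtures of ~100 molecules and run at 100 μL/min on a Zorbax Extend-C18 column (2.1 × 50 mm, 1.8 μm) with water and acetonitrile, each containing 0.1% formic acid. A coupled quadrupole time-of-flight mass spectrometer operated in positive and negative ionization mode. Retention time values come from computationally picked adduct peaks, each inspected manually.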
Turning to `Cc1ccccc1CNC(=O)c1sc(-c2cn(C)c3ncccc23)nc1C`, the RP-LC retention time is 928 s.
With `Cc1cccc(C)c1NC(=O)N(C)CC1CCOCC1` the figure was 692 s; with `Cc1ccc(S(=O)(=O)N2CC(c3noc(C)n3)C3(CCOCC3)C2)c(C)c1` (stereo not given), 888 s; with `COc1cccc(CN(C)C2CCc3nn(CC4CC4)c(=O)n3CC2)n1` (stereo not given), 587 s.
Turning to `CCOC(=O)c1csc(NC(=O)C2CCCN2S(C)(=O)=O)n1` (stereo not given), the RP-LC retention time is 649 s.
With `COc1ncc(C(=O)N2CCN(c3ccccc3F)CC2)cn1` the figure was 770 s; with `O=C(CSc1ccc(N2CCCC(C(=O)NC3CC3)C2)nn1)Nc1ccc(F)cc1Cl` (stereo not given), 675 s.
With `Cc1nn(-c2nc(CC(=O)Nc3nc(-c4ccccc4)cs3)cs2)c(C)c1Cl`, the RP-LC retention time stood at 1270 s.
As to `CCc1ccccc1NC(=O)C1CCN(c2nnc3ccccn23)CC1`, the RP-LC retention time was determined as 660 s.
In turn, `Nc1nnc(-c2ccc(Br)s2)o1` returned an RP-LC retention time of 628 s.
`CCOc1cc(=O)c(C(N)=O)nn1-c1ccc(C)cc1` showed an RP-LC retention time of 613 s.
With `CC(C)c1ccc(S(=O)(=O)N2CCC3(CC2)NCCN=C3NCc2ccccc2)cc1` the figure was 791 s; with `Cc1cc(C)cc(-n2c(-c3ccc(Cl)cc3)cn3c4c(=O)n(C)c(=O)n(C)c4nc23)c1`, 1130 s.
For `CCCc1cc(C2CCCN2C(=O)c2c(OC)cccc2OC)no1` (stereo not given), the RP-LC retention time turned out to be 898 s.
The molecule `CCc1nc(-c2csc(S(=O)(=O)N3CCC(C(=O)Nc4ccc(Cl)cc4F)CC3)c2)no1` registered an RP-LC retention time of 1060 s.
With `O=S(=O)(NC1CCN(Cc2ccccc2)CC1)c1cc(-c2cc(C(F)(F)F)on2)cs1` the figure was 776 s; with `CCOc1ncccc1CNC(=O)CC1CCCC1`, 812 s; with `Cc1cc2n(n1)CCCN2C(=O)CCC(=O)N1CCN(c2cccc(Cl)c2)CC1`, 778 s.
The result for `COc1ccccc1NC(=O)C1CCCN1S(=O)(=O)c1cc2c(cc1C)NC(=O)C(C)O2` (stereo not given) reads 801 s; that for `CN(C)Cc1ccc(S(=O)(=O)n2ccc(/C=C/C(=O)NO)c2)cc1`, 936 s.
With `Cc1cc(-c2nnc(-c3ccc(F)cc3)o2)c(C)n1CC(=O)NCc1ccccc1` the figure was 920 s; with `CN1C(=O)CCc2cc(NC(=O)c3cccs3)ccc21`, 671 s; with `Cn1c(CC2CCN(S(=O)(=O)Cc3cccc(Cl)c3)C2)nc2cccnc21` (stereo not given), 656 s.
Take `O=C(c1ccccc1Br)N1CCc2nc(-c3ccc(F)cc3)ncc2C1`: the RP-LC retention time worked out at 1010 s.
As for `CCOC(=O)c1cnc(N2CCN(c3ccccc3OC)CC2)c2ccccc12`, the RP-LC retention time is 1150 s.
The result for `Cc1cccc(CN2N=C(C(=O)N3CCOCC3)S(=O)(=O)c3ccc(C)cc32)c1` reads 835 s; that for `COc1cc(NC(=O)c2cn(-c3cc(N4CCCC4)ncn3)cn2)cc(OC)c1`, 860 s.
The result for `O=C(CNS(=O)(=O)Cc1ccccc1)N1CCOC(c2ccccc2)C1` (stereo not given) reads 784 s; that for `O=C(c1ccco1)N1CCN(c2ncnc3sc(-c4ccccc4)cc23)CC1`, 840 s.
With `Cc1cc(C)n(-c2ccnc(N3CCC(C(=O)NCCN4CCCCC4)CC3)n2)n1` the figure was 601 s.
The molecule `Cc1ccc(C(=O)Nc2nc(-c3ccccc3)cs2)cc1[N+](=O)[O-]` showed an RP-LC retention time of 1090 s.
With `CCCCNC(=O)C1CCN(c2ccc(Sc3cc(C)ccc3C)nn2)CC1` the figure was 819 s; with `Fc1ccccc1-c1noc(-c2nc(C3CC3)no2)n1`, 1050 s; with `O=C1c2ccccc2C(=O)N1c1ccc(OC(F)(F)F)cc1`, 954 s.
The result for `COc1ccc(-c2nc3ncccn3c2Nc2cccc(C)c2)cc1` reads 743 s; that for `Cc1ccccc1CC(=O)Nc1ccc2c(c1)Sc1ncccc1C(=O)N2C`, 806 s.
With `COc1ccc(NC(=O)C2CCN(S(=O)(=O)c3c(C)nn(-c4ccccc4)c3C)CC2)cc1` the figure was 896 s; with `Cc1ccc(S(=O)(=O)N2C[C@@H]3CN(S(=O)(=O)c4ccccc4F)C[C@H](C2)O3)cc1`, 955 s; with `COc1ccc(-c2noc(Cn3ccn(-c4cc(C)cc(C)c4)c(=O)c3=O)n2)cc1OC`, 834 s.
In the case of `CC(C)N1C(=O)c2cccnc2Sc2cc(NC(=O)C3CCCC3)ccc21`, the RP-LC retention time was 860 s.
With `COc1ccc(CC(=O)N2CCN(S(=O)(=O)c3cc4c5c(c3)CCC(=O)N5CCC4)CC2)cc1` the figure was 786 s; with `O=C(CCc1cc2ccccc2[nH]c1=O)N1CCN(c2ncccn2)CC1`, 645 s.
On to `COC(=O)c1ccc2c(=O)n(-c3ccc(Cl)cc3)c(N3CCCC3)nc2c1`, for which the RP-LC retention time was 1060 s.
In the case of `COc1ccc(C2Cn3cnc(C(=O)N4CCC(C(=O)NCCc5cccs5)CC4)c3CO2)cc1` (stereo not given), the RP-LC retention time stood at 691 s.
With `Cc1ccc2[nH]cc(CCN3CC(C(=O)Nc4ccc5c(c4)OCCO5)CC3=O)c2c1` (stereo not given) the figure was 777 s; with `CCSc1nnc(-c2nn(C)c3c2CN(S(=O)(=O)c2cc(Cl)ccc2OC)CC3)n1CC`, 975 s; with `O=C(C1CCN(c2cc(N3CCCCC3)ncn2)CC1)N1CCC(N2CCCCC2)CC1`, 557 s.
The result for `c1ccc(-c2cc(N3CCOCC3)n[nH]2)cc1` reads 686 s; that for `O=C(NC1CC1)c1ccccc1OCC1CCN(C(=O)c2cc(F)cc(F)c2)CC1`, 848 s.
The molecule `COc1ccc(-c2nnc(-c3ccccc3Cl)o2)cc1S(=O)(=O)N1CCOCC1` returned an RP-LC retention time of 871 s.
With `O=c1c2cc(-c3ccc4c(c3)OCO4)nn2ccn1Cc1nc(-c2cccc(Cl)c2)no1` the figure was 1080 s.
`CC(C)(C)NC(=O)N1CCCN(S(C)(=O)=O)CC1` displayed an RP-LC retention time of 614 s.
The result for `Cc1ccc(-c2ccc(-n3nc(C)c(S(=O)(=O)NCc4ccc5c(c4)OCO5)c3C)nn2)cc1` reads 1020 s; that for `Fc1cnccc1CN1CC[C@@H]2CN(Cc3ccccc3)[C@@H]2C1`, 597 s; that for `CCOc1ccc(Cl)cc1S(=O)(=O)N1CCC(C(=O)NCCOC)CC1`, 753 s.
With `O=C(NCc1ccccn1)C1CCN(C(=O)c2ncn3c2COC(c2ccc(Cl)cc2)C3)CC1` (stereo not given) the figure was 644 s.
In turn, `CCc1cc(=O)n(CC(=O)Nc2ccccc2)c(-c2ccccc2)n1` displayed an RP-LC retention time of 1090 s.
`COc1cccc(C(C#N)N2N=C(C)CC2c2ccccc2)c1O` (stereo not given) came in with an RP-LC retention time of 965 s.
With `CCc1ccc(CNC(=O)Cn2c(C)nc3onc(C)c3c2=O)cc1` the figure was 821 s; with `CC(=O)Nc1ccc(C(=O)N2CCC3(CC2)N=C(c2cccc(Br)c2)NO3)cc1`, 731 s.
In turn, `COc1cc(OC)c(NC(=O)NCC(c2cccnc2)c2c[nH]c3ccccc23)cc1Cl` (stereo not given) came in with an RP-LC retention time of 706 s.
In turn, `O=C(Cc1cccs1)Nc1nnc(Cc2ccc(F)cc2)o1` displayed an RP-LC retention time of 707 s.
`O=C(Cc1csc(-n2cccc2)n1)Nc1ccc(-n2cnnn2)cc1` showed an RP-LC retention time of 731 s.
Molecule `O=C(Nc1cc(-c2ccccc2)nn1CCO)c1ccsc1` yielded an RP-LC retention time of 726 s.
The result for `Cc1ccc(Nc2nc(-c3cccnc3)nc3ccccc23)cc1` reads 742 s; that for `Cc1ccc(CN2C(=O)CN(S(C)(=O)=O)CC2(C)C(=O)NCc2ccc(Cl)cc2)cc1` (stereo not given), 906 s; that for `CCc1ccccc1S(=O)(=O)NCC(c1cccnc1)c1cn(C)c2ccccc12` (stereo not given), 787 s.
In turn, `O=c1oc2cc(O)ccc2s1` showed an RP-LC retention time of 771 s.
The result for `CCc1ccc(NC(=O)c2sc3nc(C)nc(N4CCN(c5ccccn5)CC4)c3c2C)cc1` reads 779 s; that for `COCCn1cc(CC(=O)NC2CCCCC2)c2cccnc21`, 700 s.
The result for `CCOC(=O)N1CCN(C(c2ccc(F)cc2)c2sc3ncnn3c2O)CC1` (stereo not given) reads 667 s; that for `CC(NC(=O)c1ccc(-c2ccnc(N3CCCCC3)n2)cc1)c1cccnc1` (stereo not given), 651 s.
With `O=S(=O)(NCCOc1ccccc1)c1ccccc1Cl` the figure was 869 s; with `Cc1ccc(-c2nc3cccc(C)n3c2Nc2ccc3c(c2)OCCO3)cc1`, 710 s; with `O=C(CN1CCN(C(=O)Nc2ccc(Br)cc2)CC1=O)NCCN1CCCCC1`, 602 s.
The molecule `Cc1nc(C)c(C(=O)N2CC(n3cc(COc4ccc(F)cc4)nn3)C2)s1` showed an RP-LC retention time of 729 s.
Molecule `Cc1cc(=O)n(CC(=O)Nc2c(C)cccc2C)c(N2CCOCC2)n1` had an RP-LC retention time of 612 s.
The result for `Cn1cc(-c2cc3n(n2)CCCN3C(=O)CCC(=O)NCCCN2CCCCC2)c2ccccc21` reads 623 s; that for `O=C(NCc1ccc(Cl)cc1)C1CCN(S(=O)(=O)c2cc(C(=O)N3CCCC3)cs2)CC1`, 916 s; that for `Cc1ccc(NC(=O)Cn2cccc2-c2nnc(C3CCC3)o2)cc1C`, 985 s.
